ChEMBL document CHEMBL1201862, “PubChem BioAssay data set” (2004)
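Method: 48-hour compound exposure of cells in 96-well plates, five concentrations, linear interpolation of endpoints. GI50 = concentration required for 50% inhibition of growth.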 The source made the active and inactive calls. Rule as the data show it: active = GI50 up to about 1.1 µM and inactive = higher.

What was measured:
Test in all cases: DTP human tumour cell line panel, 48 h
[1] = system: U-251
[2] = system: HCT-15
[3] = system: SN12C
[4] = system: UACC-257
[5] = system: NCI-H23
[6] = system: CAKI-1
[7] = system: OVCAR-5
[8] = system: CCRF-CEM
[9] = system: IGROV-1
[10] = system: HL-60
[11] = system: ACHN
[12] = system: SW-620
[13] = system: HOP-18
[14] = system: SNB-78
[15] = system: DLD-1
[16] = system: DMS-273
[17] = system: DMS-114
[18] = system: 786-0
[19] = system: SK-MEL-28
[20] = system: SF-539
[21] = system: M14
[22] = system: KM12
[23] = system: NCI-H226
[24] = system: TK-10
[25] = system: COLO 205
[26] = system: SNB-19
[27] = system: OVCAR-8
[28] = system: OVCAR-4
[29] = system: EKVX
[30] = system: NCI-H460
[31] = system: HCT-116
[32] = system: HT-29
[33] = system: SF-295
[34] = system: SNB-75
[35] = system: LOX IMVI
[36] = system: HOP-62
[37] = system: SK-MEL-2
[38] = system: RXF 393
[39] = system: UO-31
[40] = system: SF-268
[41] = system: A549
[42] = system: A498
[43] = system: K562
[44] = system: OVCAR-3
[45] = system: SK-MEL-5
[46] = system: UACC-62
[47] = system: SK-OV-3
[48] = system: HOP-92
[49] = system: HCC 2998
[50] = system: RXF 631
[51] = system: M19-MEL
[52] = system: MOLT-4

SMILES: CN(C)CCNC(=O)c1cccc2nc3ccc4ccccc4c3nc12
- GI50 [1]: 0.112 µM (active)
- GI50 [2]: 0.0598 µM
- GI50 [3]: 0.0478 µM (active)
- GI50 [4]: 0.212 µM (active)
- GI50 [5]: 0.0942 µM (active)
- GI50 [6]: 0.0518 µM (active)
- GI50 [7]: 0.21 µM (active)
- GI50 [8]: 0.0673 µM (active)
- GI50 [9]: 0.0817 µM (active)
- GI50 [10]: 0.114 µM (active)
- GI50 [11]: 0.0658 µM (active)
- GI50 [12]: 0.0181 µM (active)
- GI50 [13]: 0.197 µM (active)
- GI50 [14]: 0.138 µM (active)
- GI50 [15]: 0.047 µM (active)
- GI50 [16]: 0.0362 µM (active)
- GI50 [17]: 0.121 µM (active)
- GI50 [18]: 0.125 µM (active)
- GI50 [19]: 0.29 µM (active)
- GI50 [20]: 0.0652 µM (active)
- GI50 [21]: 0.2 µM (active)
- GI50 [22]: 0.131 µM (active)
- GI50 [23]: 0.178 µM (active)
- GI50 [24]: 0.139 µM (active)
- GI50 [25]: 0.0434 µM (active)
- GI50 [26]: 0.132 µM (active)
- GI50 [27]: 0.0574 µM (active)
- GI50 [28]: 0.114 µM (active)
- GI50 [29]: 0.126 µM (active)
- GI50 [30]: 0.0266 µM (active)
- GI50 [31]: 0.0247 µM (active)
- GI50 [32]: 0.0499 µM (active)
- GI50 [33]: 0.0989 µM (active)
- GI50 [34]: 0.12 µM (active)
- GI50 [35]: 0.0726 µM (active)
- GI50 [36]: 0.147 µM (active)
- GI50 [37]: 0.177 µM (active)
- GI50 [38]: 0.0583 µM (active)
- GI50 [39]: 0.0685 µM (active)
- GI50 [40]: 0.0592 µM (active)
- GI50 [41]: 0.0481 µM (active)
- GI50 [42]: 0.0832 µM (active)
- GI50 [43]: 0.0931 µM (active)
- GI50 [44]: 0.169 µM (active)
- GI50 [45]: 0.105 µM (active)
- GI50 [46]: 0.126 µM (active)
- GI50 [47]: 0.144 µM (active)
- GI50 [48]: 0.0957 µM (active)
- GI50 [49]: 0.126 µM (active)
- GI50 [50]: 0.0405 µM (active)
- GI50 [51]: 0.0946 µM (active)
- GI50 [52]: 0.0324 µM (active)
